Data: US6551585B1, “Use of tumor necrosis factor as an adjuvant” (Genentech, Inc., priority 1987, dated 2003)
Marks after values point to notes of the source that are not given here.

Legend:
[1] = system: 2237 tumor cells (syngeneic fibrosarcoma); test: Immunization with radiation killed 2237 tumor cells plus adjuvant, then footpad challenge with live 2237 cells; tumor volume by calipers; assay type: in vivo, C3H/HeN mice
From the text: C3H/HeN mice were immunized with 1×10^5 radiation killed 2237 tumor cells. The 2237 cell line is a moderately antigenic syngeneic fibrosarcoma obtained from s.c. growing tumors by collagenase dissociation. The donor tumor cells for use in tumor vaccine were irradiated with 10,000 R of gamma irradiation. Irradiation ultimately kills the cells but they are not immediately killed, indeed the cells may be able to undergo one or two additional divisions before a sufficient accumulation of chromosomal breaks or other abnormalities is obtained to result in a lethal event. Thus, irradiation results in a metabolically viable but noncontinuously proliferating cell. The cells were admixed with HBSS alone (serving as a non-adjuvant killed cell control vaccine), or with HBSS containing various doses of homogeneous recombinant Val-terminal human TNF-α alone or TNF-α plus IFN-γ. The mixture was injected intradermally into the posterior ventral region at five sites. Controls also included TNF without tumor cells, injections of HBSS alone (without killed 2237 cells), and FK565, a dimuramyl dipeptide derivative representing a known adjuvant as a positive control. Primary immunization with 2237 cells and TNF-α occurred on day 1; TNF-α was administered intraperitoneally alone on days 2 and 3. Secondary intradermal immunization occurred on day 11 with the same number of killed cells. When IFN-γ was used with TNF-α, IFN-γ administrations accompanied the TNF-α administration and further, IFN-γ, TNF-α or IFN-γ plus TNF-α were administered intraperitoneally on days 12 and 13. Five days after the second immunization the animals' footpads were injected with live 2237 cells. 48, 74 and 81 days later the tumors that had developed were measured by calipers in two dimensions. Numerous control animals had died by the last measurement day. […] Tumor volume was determined using the formula for a prolated sphere using the two dimensions previously measured. The formula is tumor volume (cm^3) equals ½ A×B^2; where A equals the larger tumor diameter and B equals the smaller tumor diameter.

cytotoxic T cells = test: Development of cytotoxic T cells in 2237-cell immunized mice; assay type: in vivo
2237 cells = test: Direct cytotoxic effect on 2237 cells; assay type: cell-based
From the text: This is not especially relevant in the context of the foregoing experiments because the tumor cells were not injected into the animals until 2 days after they had last been exposed to cytokines.

[2] = system: bovine serum albumin (BSA); test: Serum antibody (IgG) against BSA by Elisa after BSA immunization; assay type: in vivo, C3H/HeN mice; details: for Production of antibody (IgG) against BSA: BSA 500 μg i.p. day 0 and second injection 100 μg, adjuvant at various doses, bled three days later, Elisa
Procedure: C3H/HeN mice were given an i.p. injection of bovine serum albumin using a suboptimal vaccine dose (500 μg/animal), which was administered by i.p. injection on day 0. Various doses of TNF-α, as an adjuvant, were administered 48 hours following a second injection of BSA at 100 μg/animal. The mice were bled three days later and the serum antibody levels as IgG were determined using routine Elisa techniques. The i.v. injection of maleic divinyl ether with an average molecular weight of 20,000 daltons was used as a positive control.

[3] = 500 μg per animal with killed 2237 cell vaccine
[4] = 5 × 10^4 units per animal with killed 2237 cell vaccine
[5] = 0.1 μg per animal with killed 2237 cell vaccine
[6] = 1 μg per animal with killed 2237 cell vaccine
[7] = 5 μg per animal with killed 2237 cell vaccine

Molecule: CCCCCCC(=O)N[C@H](CCC(=O)N[C@@H](CCC[C@@H](N)C(=O)O)C(=O)N[C@H](C)C(=O)O)C(=O)O [FK565, reference compound]
- Tumor Volume Day 48 [1, 3]: 0 cm^3
- Tumor Volume Day 74 [1, 3]: 0 cm^3
- Tumor Volume Day 81 [1, 3]: 0 cm^3

Molecule: IFN-γ: IFN-γ (γ-interferon) lymphokine given with or without TNF-α
- Tumor Volume Day 48 [1, 4]: 0 cm^3
- Tumor Volume Day 74 [1, 4]: 0 cm^3
- Tumor Volume Day 81 [1, 4]: 0 cm^3

Molecule: TNF-α
- Stimulation of the development of cytotoxic T cells (cytotoxic T cells): able to stimulate the development of cytotoxic T cells
- Direct cytotoxic effect on 2237 cells (2237 cells): Neither TNF-α nor IFN-γ have any significant direct cytotoxic effect
- Production of antibody (IgG) against BSA [2]: in a dose-dependent manner augmented
- Serum antibody activity after injection of TNF alone ([2]; control, TNF alone): did not induce serum antibody activity
- Tumor Volume Day 48 [1, 5]: 0 cm^3
- Tumor Volume Day 74 [1, 5]: 0 cm^3
- Tumor Volume Day 81 [1, 5]: 0 cm^3
- Fate of the tumor that had developed in one animal ([1]; 1 μg per animal group, footnote to Day 48 value): *The tumor that had developed in one animal in this group regressed before the end of the study.
- Tumor Volume Day 48 [1, 6]: 0.157* cm^3
- Tumor Volume Day 74 [1, 6]: 0 cm^3
- Tumor Volume Day 81 [1, 6]: 0 cm^3
- Tumor Volume Day 48 [1, 7]: 0 cm^3
- Tumor Volume Day 74 [1, 7]: 0 cm^3
- Tumor Volume Day 81 [1, 7]: 0 cm^3

Molecule: maleic divinyl ether [MVE-2, reference compound]
- Production of antibody (IgG) against BSA [2]: in a dose-dependent manner augmented

B1: IFN-γ: IFN-γ (γ-interferon) lymphokine given with or without TNF-α (protein, UniProt P01579 24-161, looked up)
Interferon gamma: QDPYVKEAENLKKYFNAGHSDVADNGTLFLGILKNWKEESDRKIMQSQIVSFYFKLFKNFKDDQSIQKSVETIKEDMNVKFFNSNKKKRDDFEKLTNYSVTDLNVQRKAIHELIQVMAELSPAAKTGKRKRSQMLFRG
- Direct cytotoxic effect on 2237 cells (2237 cells): Neither TNF-α nor IFN-γ have any significant direct cytotoxic effect
